Test results: PubChem BioAssay (NCI)
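A five-concentration, 48-hour dose response in 96-well plates underlies each endpoint, interpolated linearly between surrounding concentrations. Here, GI50 denotes the concentration required for 50% inhibition of growth. TGI: total growth inhibition.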

Key:
Test in all cases: NCI anticancer screen, dose series, 48 h
MDA-N = test system: MDA-N
MCF7 breast = test system: MCF7 breast
MDA-MB-231 breast = test system: MDA-MB-231 breast
MOLT-4 leukemia = test system: MOLT-4 leukemia
UACC-62 melanoma = test system: UACC-62 melanoma
IGROV1 ovarian = test system: IGROV1 ovarian
LOX IMVI melanoma = test system: LOX IMVI melanoma
MDA-MB-435 = test system: MDA-MB-435
SK-MEL-2 melanoma = test system: SK-MEL-2 melanoma
SR leukemia = test system: SR leukemia

| SMILES | TGI (MDA-N) [µM] | TGI (MCF7 breast) [µM] | TGI (MDA-MB-231 breast) [µM] | TGI (MOLT-4 leukemia) [µM] | TGI (UACC-62 melanoma) [µM] | TGI (IGROV1 ovarian) [µM] | TGI (LOX IMVI melanoma) [µM] | TGI (MDA-MB-435) [µM] | TGI (SK-MEL-2 melanoma) [µM] | TGI (SR leukemia) [µM] | GI50 (MCF7 breast) [µM] | GI50 (MDA-MB-231 breast) [µM] | GI50 (MOLT-4 leukemia) [µM] | GI50 (UACC-62 melanoma) [µM] | GI50 (SR leukemia) [µM] | GI50 (IGROV1 ovarian) [µM] | GI50 (LOX IMVI melanoma) [µM] | GI50 (MDA-MB-435) [µM] | GI50 (SK-MEL-2 melanoma) [µM] |
| --- | --- | --- | --- | --- | --- | --- | --- | --- | --- | --- | --- | --- | --- | --- | --- | --- | --- | --- | --- |
| CCOP(=O)(/C=C/n1cc(C)c(=O)[nH]c1=O)OCC | > 100 | > 100 | > 100 | > 100 | > 100 | > 100 | > 100 | > 100 | > 100 |  |  |  |  |  |  |  |  |  |  |
| CC1=C(C)C(=O)C(C2=CC(=O)c3ccccc3C2=O)=C(C2=CC(=O)c3ccccc3C2=O)C1=O |  |  | 13.4 | > 36.2 | 27.6 | 29.8 | > 21.2 | 1.19 | 24.4 |  |  |  |  |  |  |  |  |  |  |
| CCOc1ccc2nc(NC(=O)C(=O)C(C(=O)c3ccccc3F)C3OC(=O)c4ccccc43)sc2c1 (stereo unspecified) |  |  |  | > 100 | 27.7 | 83.2 |  |  | 39.1 | 55.6 |  |  |  |  |  |  |  |  |  |
| C/C(=C1\N=C(c2ccccc2)OC1=O)c1ccccc1 |  | > 100 |  | > 100 | > 100 | > 100 | > 100 | > 100 | > 100 | > 100 |  |  |  |  |  |  |  |  |  |
| O=C(Nc1ccccc1)N1CCN(C(=O)Nc2ccccc2)C1=S | > 100 |  | > 100 | > 100 |  | > 100 | > 100 | > 100 | > 100 | > 100 |  |  |  |  |  |  |  |  |  |
| C=C(C)C1CC(=O)C(C)=C(O)C1 (stereo unspecified) | > 100 | > 100 | > 100 | > 100 | > 100 | > 100 | > 100 |  | > 100 | > 100 |  |  |  |  |  |  |  |  |  |
| N#Cc1c(-c2ccc([N+](=O)[O-])cc2)c(C#N)c(=O)n(NS(=O)(=O)c2ccccc2)c1S |  | > 100 | 44.7 | 46.5 | 60.3 | 48.3 | 38 | 81.9 | 60.8 |  |  |  |  |  |  |  |  |  |  |
| COC(=O)C1=C(CCCCO[Si](C)(C)C(C)(C)C)NC(=O)N2[C@H](CCOCc3ccccc3)CC[C@@H]12 | > 100 | > 100 | > 100 | > 100 | > 100 |  |  | > 100 | > 100 |  |  |  |  |  |  |  |  |  |  |
| COc1nc(Cl)nc(N[C@H](C)c2c3ccccc3cc3ccccc23)n1 | 8.99 | 29.2 | 34.4 | 40.1 | 13.8 | 20.5 | 33.2 | 15.1 | 31.6 |  |  |  |  |  |  |  |  |  |  |
| CCOC(=O)NC(=S)N(CC(=O)c1cc(OC)c(OC)c(OC)c1)c1ccc(Cl)cc1 |  | > 100 | > 100 | > 100 | > 100 | > 100 | > 100 | > 100 | > 100 | > 100 | > 100 | 45.9 | 52.3 | 55.2 | 38.1 | 70.1 | 23.7 | > 100 | 47.4 |
| O=C1c2cc3c(cc2-c2c1c1cc(F)c(F)cc1c(=O)n2CCCn1ccnc1)OCO3 |  | 1.39 | > 100 | 1.24 |  | > 100 |  |  | 0.93 | 16.6 | < 0.01 | 0.311 | < 0.01 |  | < 0.01 | 0.14 |  |  | 0.256 |
| COP(=O)(OC)OCN(C)CC/C=C(\C)CC/C=C(\C)CCC=C(C)C | 29.3 | 28.5 | 56.3 | 28.9 |  | 25.8 | 29.3 | 40.2 | 28.2 |  |  |  |  |  |  |  |  |  |  |
| ClC1=NN=C(c2c[nH]c3ccccc23)CC1NCc1ccccc1 (stereo unspecified) | > 100 |  | > 100 | > 100 | > 100 | > 100 | > 100 | > 100 | > 100 |  |  |  |  |  |  |  |  |  |  |
| Cn1c(=O)c2c(nc3[nH]c(=O)c(Br)cn32)n(C)c1=O | > 100 |  | > 100 | > 100 | > 100 | > 100 | > 100 | > 100 | > 100 | > 100 |  |  |  |  |  |  |  |  |  |
| COC(=O)[C@]1(c2cc3ccccc3n2S(=O)(=O)c2ccccc2)CC2CN(C(=O)OCc3ccccc3)C1C1OC(C)(C)OC21 (stereo partly specified) | > 100 | > 100 | > 100 | > 100 | > 100 | > 100 | > 100 | > 100 | > 100 |  |  |  |  |  |  |  |  |  |  |
| C[s+]1c2ccccc2c2ccccc21 |  |  |  | > 100 | > 100 | > 100 | > 100 |  | > 100 | > 100 |  |  |  |  |  |  |  |  |  |
| N#Cc1ccccc1NC(=O)C(=O)C(C(=O)c1ccccc1F)C1OC(=O)c2ccccc21 (stereo unspecified) |  |  |  | > 100 | > 100 | > 100 | > 100 |  | 68.8 | 57 |  |  |  |  |  |  |  |  |  |
